Article PMC10653547, “Synergistic effect of two antimicrobial peptides, BP203 and MAP-0403 J-2 with conventional antibiotics against colistin-resistant Escherichia coli and Klebsiella pneumoniae clinical isolates” (PLOS ONE, 2023)
Read-outs that look alike come from different tables or passages of the source. No end group written: not given here.

Experiments:
[1] = tested on: K. pneumoniae ATCC BAA-1706
Experimental: (§1) The MICs of BP203 and MAP-0403 J-2 against clinically colistin-resistant E. coli and K. pneumoniae isolates were determined using the broth microdilution method, according to CLSI recommendations. Briefly, the peptides were subjected to serial dilution in cation-adjusted Mueller-Hinton broth (CAMHB) and added to a 96-well microtiter plate (Wuxi NEST Biotechnology, Wuxi, China). Subsequently, bacterial suspensions from freshly mid-log phase cultures were diluted to 10^6 CFU/mL with CAMHB, and introduced to each well containing the peptides.
(§2) The antibacterial activity of BP203 and MAP-0403 J-2 was evaluated concerning their response to temperature, pH, serum, and salt ions using the MIC assay, following the previously mentioned procedure. The MIC values of peptides were determined against E. coli ATCC29522 and K. pneumoniae ATCC BAA-1706. […] For the pH stability assay, both peptides were incubated in buffers with different pH values (100 mM buffers: glycine-HCl buffer (pH 2.0), sodium acetate buffer (pH 4.0), sodium phosphate buffer (pH 6.0), Tris-HCl buffer (pH 8.0), and glycine-NaOH buffer (pH 10.0)) for 1 h at 37°C. […] For serum stability assay, both peptides were exposed to 25% and 50% fetal bovine serum (FBS) for 1 h at 37°C, followed by a heat activation step for 30 min at 60°C. Afterward, the peptide solutions were serially diluted and MIC was subsequently determined. […] The serial dilutions of peptides were incubated with tested strains for MIC testing. The MICs were observed after 20–24 h of incubation at 37°C.

E. coli ATCC 25922 [2] = tested on: E. coli ATCC 25922
Experimental: as §1, §2

[3] = tested on: MRC-5 (CCL-171) normal lung fibroblast cells; assay: Cytotoxicity assay using MTT; type: cell-based, human
Experimental: MRC-5 (CCL-171) cell line, a representative of normal lung fibroblast cells, was used to investigate the cytotoxic effects of two AMPs, BP203 and MAP-0403 J-2. The cells were grown in Dulbecco’s Modified Eagle Medium (DMEM, Cytiva Life Sciences, Marlborough, MA, USA), supplemented with 10% fetal bovine serum (FBS), 1% penicillin (10,000 U/mL) and streptomycin (10,000 μg/mL) (Gibco, Waltham, MA, USA). 2×10^4 cells were seeded into each well of a 96-well plate and allowed to adhere for 24 h. Then, these cells were subjected to exposure to a medium containing a prepared two-fold serial dilution of BP203 or MAP-0403 J-2. […] 3-(4,5-Dimethylthiazol-2-yl)-2,5-Diphenyltetrazolium Bromide (MTT) was introduced into each well to achieve a concentration of 0.5 mg/mL followed by 4 h. incubation. Subsequently, formazan crystals were dissolved through the addition of 100 μL of a solubilizing solution composed of 10% SDS in 0.1 N HCl and the developed color was measured using a microtiter plate reader at an optical density (OD) of 570 nm. Cell viability was calculated as follows: (ODsample/ODcontrol) × 100.

[4] = tested on: K. pneumoniae ATCC BAA-1706; remark: listed apart in the source
Experimental: as §1
(§3) The antibacterial activity of BP203 and MAP-0403 J-2 was evaluated concerning their response to temperature, pH, serum, and salt ions using the MIC assay, following the previously mentioned procedure. The MIC values of peptides were determined against E. coli ATCC29522 and K. pneumoniae ATCC BAA-1706. […] For the pH stability assay, both peptides were incubated in buffers with different pH values (100 mM buffers: glycine-HCl buffer (pH 2.0), sodium acetate buffer (pH 4.0), sodium phosphate buffer (pH 6.0), Tris-HCl buffer (pH 8.0), and glycine-NaOH buffer (pH 10.0)) for 1 h at 37°C. […] For serum stability assay, both peptides were exposed to 25% and 50% fetal bovine serum (FBS) for 1 h at 37°C, followed by a heat activation step for 30 min at 60°C. Afterward, the peptide solutions were serially diluted and MIC was subsequently determined. For the salt stability assay, each peptide was treated in MHB supplemented with different salts at their physiological concentrations; NaCl (100, 150, and 200 mM), MgCl2 (0.5, 1 and 2 mM), and FeCl3 […]. The serial dilutions of peptides were incubated with tested strains for MIC testing. The MICs were observed after 20–24 h of incubation at 37°C.

E. coli ATCC 25922 [5] = tested on: E. coli ATCC 25922; remark: listed apart in the source
Experimental: as §1, §3

[6] = 25% fetal bovine serum, 1 h at 37 °C
[7] = 50% fetal bovine serum, 1 h at 37 °C
[8] = pH 2, 100 mM glycine-HCl buffer, 1 h at 37 °C, neutralized
[9] = pH 4, 100 mM sodium acetate buffer, 1 h at 37 °C, neutralized
[10] = pH 6, 100 mM sodium phosphate buffer, 1 h at 37 °C, neutralized
[11] = pH 8, 100 mM Tris-HCl buffer, 1 h at 37 °C, neutralized
[12] = pH 10, 100 mM glycine-NaOH buffer, 1 h at 37 °C, neutralized
[13] = peptide incubated 1 h at 25 °C (control)

Substance: KWLRRPWRRWR-NH2 [MAP-0403 J-2]
- MIC in the presence of physiological salts ([1]; Control, 0): 16 μg/mL
- MIC in the presence of physiological salts ([1]; FeCl3 1 μM): 16 μg/mL
- MIC in the presence of physiological salts ([1]; FeCl3 4 μM): 16 μg/mL
- MIC in the presence of physiological salts ([1]; FeCl3 8 μM): 32 μg/mL
- MIC in the presence of physiological salts ([1]; MgCl2 0.5 mM): 16 μg/mL
- MIC in the presence of physiological salts ([1]; MgCl2 1 mM): 16 μg/mL
- MIC in the presence of physiological salts ([1]; MgCl2 2 mM): 16 μg/mL
- MIC in the presence of physiological salts ([1]; NaCl 100 mM): 32 μg/mL
- MIC in the presence of physiological salts ([1]; NaCl 150 mM): 64 μg/mL
- MIC in the presence of physiological salts ([1]; NaCl 200 mM): 64 μg/mL
- MIC in the presence of physiological salts (E. coli ATCC 25922 [2]; Control, 0): 16 μg/mL
- MIC in the presence of physiological salts (E. coli ATCC 25922 [2]; FeCl3 1 μM): 16 μg/mL
- MIC in the presence of physiological salts (E. coli ATCC 25922 [2]; FeCl3 4 μM): 16 μg/mL
- MIC in the presence of physiological salts (E. coli ATCC 25922 [2]; FeCl3 8 μM): 16 μg/mL
- MIC in the presence of physiological salts (E. coli ATCC 25922 [2]; MgCl2 0.5 mM): 16 μg/mL
- MIC in the presence of physiological salts (E. coli ATCC 25922 [2]; MgCl2 1 mM): 16 μg/mL
- MIC in the presence of physiological salts (E. coli ATCC 25922 [2]; MgCl2 2 mM): 16 μg/mL
- MIC in the presence of physiological salts (E. coli ATCC 25922 [2]; NaCl 100 mM): 32 μg/mL
- MIC in the presence of physiological salts (E. coli ATCC 25922 [2]; NaCl 150 mM): 64 μg/mL
- MIC in the presence of physiological salts (E. coli ATCC 25922 [2]; NaCl 200 mM): 64 μg/mL
- Cell viability at highest concentration ([3]; 200 μg/mL, 24 h): 73.43%
- IC50 ([3]; 24 h exposure): > 200 µg/mL
- MIC after FBS treatment ([4]; 0% FBS (control)): 16 µg/mL
- MIC after FBS treatment [4, 6]: 16 µg/mL
- MIC after FBS treatment [4, 7]: 16 µg/mL
- MIC after pH treatment [4, 8]: 16 μg/mL
- MIC after pH treatment [4, 9]: 16 μg/mL
- MIC after pH treatment [4, 10]: 16 μg/mL
- MIC after pH treatment ([4]; pH 7 (control)): 16 μg/mL
- MIC after pH treatment [4, 11]: 16 μg/mL
- MIC after pH treatment [4, 12]: 16 μg/mL
- MIC after temperature treatment [4, 13]: 16 µg/mL
- MIC after temperature treatment ([4]; peptide incubated 1 h at 37 °C): 16 µg/mL
- MIC after temperature treatment ([4]; peptide incubated 1 h at 50 °C): 16 µg/mL
- MIC after temperature treatment ([4]; peptide incubated 1 h at 70 °C): 16 µg/mL
- MIC after temperature treatment ([4]; peptide incubated 1 h at 90 °C): 16 µg/mL
- MIC after FBS treatment (E. coli ATCC 25922 [5]; 0% FBS (control)): 16 µg/mL
- MIC after FBS treatment (E. coli ATCC 25922 [5]; [6]): 16 µg/mL
- MIC after FBS treatment (E. coli ATCC 25922 [5]; [7]): 32 µg/mL
- MIC after pH treatment (E. coli ATCC 25922 [5]; [8]): 16 μg/mL
- MIC after pH treatment (E. coli ATCC 25922 [5]; [9]): 16 μg/mL
- MIC after pH treatment (E. coli ATCC 25922 [5]; [10]): 16 μg/mL
- MIC after pH treatment (E. coli ATCC 25922 [5]; pH 7 (control)): 16 μg/mL
- MIC after pH treatment (E. coli ATCC 25922 [5]; [11]): 16 μg/mL
- MIC after pH treatment (E. coli ATCC 25922 [5]; [12]): 16 μg/mL
- MIC after temperature treatment (E. coli ATCC 25922 [5]; [13]): 16 µg/mL
- MIC after temperature treatment (E. coli ATCC 25922 [5]; peptide incubated 1 h at 37 °C): 16 µg/mL
- MIC after temperature treatment (E. coli ATCC 25922 [5]; peptide incubated 1 h at 50 °C): 16 µg/mL
- MIC after temperature treatment (E. coli ATCC 25922 [5]; peptide incubated 1 h at 70 °C): 16 µg/mL
- MIC after temperature treatment (E. coli ATCC 25922 [5]; peptide incubated 1 h at 90 °C): 16 µg/mL
